Results: ChEMBL document CHEMBL1201862, “PubChem BioAssay data set” (2004)
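Results reflect a 48-hour exposure of cells in 96-well plates to compound at five concentrations. The concentration for 50% growth inhibition is given as GI50.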 Activity calls are given as the source filed them. Rule as the data show it: active = GI50 up to about 1.1 µM and inactive = higher.

What was measured:
Assay in all cases: NCI anticancer screen, dose series, 48 h
786-0 = tested on: 786-0
A549 = tested on: A549
ACHN = tested on: ACHN
BT-549 = tested on: BT-549
CAKI-1 = tested on: CAKI-1
CCRF-CEM = tested on: CCRF-CEM
COLO 205 = tested on: COLO 205
DU-145 = tested on: DU-145
HCC 2998 = tested on: HCC 2998
HCT-116 = tested on: HCT-116
HCT-15 = tested on: HCT-15
HL-60 = tested on: HL-60
HOP-62 = tested on: HOP-62
HOP-92 = tested on: HOP-92
HT-29 = tested on: HT-29
Hs-578T = tested on: Hs-578T
IGROV-1 = tested on: IGROV-1
K562 = tested on: K562
KM12 = tested on: KM12
LOX IMVI = tested on: LOX IMVI
M14 = tested on: M14
MCF7 = tested on: MCF7
MDA-MB-231 = tested on: MDA-MB-231
MDA-MB-435 = tested on: MDA-MB-435
MDA-N = tested on: MDA-N
MOLT-4 = tested on: MOLT-4
Malme-3M = tested on: Malme-3M
NCI-H226 = tested on: NCI-H226
NCI-H23 = tested on: NCI-H23
NCI-H460 = tested on: NCI-H460
NCI-H522 = tested on: NCI-H522
NCI/ADR-RES = tested on: NCI/ADR-RES
OVCAR-3 = tested on: OVCAR-3
OVCAR-4 = tested on: OVCAR-4
OVCAR-5 = tested on: OVCAR-5
OVCAR-8 = tested on: OVCAR-8
PC-3 = tested on: PC-3
RPMI-8226 = tested on: RPMI-8226
RXF 393 = tested on: RXF 393
SF-268 = tested on: SF-268
SF-295 = tested on: SF-295
SF-539 = tested on: SF-539
SK-MEL-28 = tested on: SK-MEL-28
SK-MEL-2 = tested on: SK-MEL-2
SK-OV-3 = tested on: SK-OV-3
SN12C = tested on: SN12C
SNB-19 = tested on: SNB-19
SNB-75 = tested on: SNB-75
SR = tested on: SR
SW-620 = tested on: SW-620
TK-10 = tested on: TK-10
U-251 = tested on: U-251
UACC-257 = tested on: UACC-257
UACC-62 = tested on: UACC-62
UO-31 = tested on: UO-31
EKVX = tested on: EKVX
SK-MEL-5 = tested on: SK-MEL-5
T47D = tested on: T47D

Measured: GI50

CC(C)N1CC2CN(Cc3ccccc3)CC(C1)C2=O
inactive: 786-0 > 100 µM | A549 > 100 µM | ACHN > 100 µM | BT-549 > 100 µM | CAKI-1 > 100 µM | CCRF-CEM 89.1 µM | COLO 205 > 100 µM | DU-145 > 100 µM | HCC 2998 > 100 µM | HCT-116 > 100 µM | HL-60 > 100 µM | HOP-62 > 100 µM | HOP-92 > 100 µM | HT-29 > 100 µM | Hs-578T > 100 µM | IGROV-1 > 100 µM | K562 > 100 µM | KM12 > 100 µM | LOX IMVI > 100 µM | M14 > 100 µM | MCF7 > 100 µM | MDA-MB-231 > 100 µM | MDA-MB-435 > 100 µM | MDA-N > 100 µM | MOLT-4 > 100 µM | Malme-3M > 100 µM | NCI-H226 > 100 µM | NCI-H23 > 100 µM | NCI-H460 > 100 µM | NCI-H522 > 100 µM | NCI/ADR-RES > 100 µM | OVCAR-3 > 100 µM | OVCAR-4 > 100 µM | OVCAR-5 > 100 µM | OVCAR-8 > 100 µM | PC-3 > 100 µM | RPMI-8226 > 100 µM | RXF 393 > 100 µM | SF-268 > 100 µM | SF-295 > 100 µM | SF-539 > 100 µM | SK-MEL-28 > 100 µM | SK-MEL-2 > 100 µM | SK-OV-3 > 100 µM | SN12C > 100 µM | SNB-19 > 100 µM | SNB-75 > 100 µM | SR > 100 µM | SW-620 > 100 µM | TK-10 > 100 µM | U-251 > 100 µM | UACC-257 > 100 µM | UACC-62 > 100 µM | UO-31 > 100 µM
> 100 µM: HCT-15

CN(C)C(=N)/N=C(\N)Nc1cccc(Cl)c1
inactive: 786-0 > 100 µM | A549 > 100 µM | ACHN 55.5 µM | BT-549 19.5 µM | CAKI-1 48.2 µM | COLO 205 20 µM | EKVX > 100 µM | HCC 2998 > 100 µM | HCT-116 85.7 µM | HOP-62 > 100 µM | HT-29 > 100 µM | Hs-578T > 100 µM | IGROV-1 24.5 µM | K562 > 100 µM | KM12 > 100 µM | LOX IMVI 35.9 µM | M14 58.2 µM | MCF7 90.8 µM | MDA-MB-231 46.7 µM | MDA-MB-435 > 100 µM | MDA-N 83.9 µM | MOLT-4 > 100 µM | Malme-3M 45.3 µM | NCI-H226 22.3 µM | NCI-H23 > 100 µM | NCI-H460 91.6 µM | NCI/ADR-RES > 100 µM | OVCAR-3 > 100 µM | OVCAR-4 > 100 µM | OVCAR-5 > 100 µM | OVCAR-8 61.4 µM | PC-3 41.8 µM | RPMI-8226 > 100 µM | SF-268 35.4 µM | SF-295 84.1 µM | SF-539 47.8 µM | SK-MEL-28 > 100 µM | SK-MEL-2 > 100 µM | SK-MEL-5 28.1 µM | SK-OV-3 > 100 µM | SN12C 98.6 µM | SNB-19 > 100 µM | SNB-75 91.2 µM | SR 53.2 µM | SW-620 > 100 µM | T47D 24.8 µM | TK-10 > 100 µM | U-251 > 100 µM | UACC-257 90.8 µM | UACC-62 89.1 µM | UO-31 78 µM
> 100 µM: HCT-15
